{
  "source": "patent US9744186B2",
  "about": "(priority 2012, dated 2017)",
  "key": {"[1]": {"assay": "TC50 MTS assay: PK9 cells", "assay_type": "cell-based", "conditions": "human, 48 h drug treatment", "procedure": "(§1) Plating Cells: The Huh7, HEPG2, HEK293, MCF-7, PK9, RPK9, or BxPC3 cells were passaged when they were about 70% confluent. The cells were counted using a hemocytometer, and then diluted cells to 0.5×10^5 cells per mL in DMEM+10% FBS. 100 µL of the cells (5,000 cells) were plated per well in a clear 96-well plate. The cells were allowed to attach for 24 hours at 37° C.\n(§2) Treating the cells: Pre-warm the DMEM media without phenol red+2% FBS media to 37° C. […] This will bring the final DMSO concentration to 0.5%. Use these 0.5 mM dilutions to further serially the drugs in DMEM without phenol red+2% FBS+0.5% DMSO. This will keep the concentration of DMSO in each condition identical. Remove the 96-well plate from the 37° C. incubator. Replace the media on the plate with the dilutions of the drugs. Stagger these treatments by 1 h and write the treatment time on each set of plates. Return to 37° C. for 48 h or 96 h as indicated.\n(§3) MTS Assay: The reagents from CellTiter 96 kit (Promega Corporation, Madison, Wis.) were thawed at room temperature in the dark for 1 h. The 96-well plate was removed from the 37° C. incubator at 48 h after drug treatment. […] The absorbance of each well at 490 nm and 650 nm was determined using the Flexstation 3 microplate reader in endpoint mode every hour for 3 h. The solutions in the wells were mixed prior to each reading. […]"}, "[2]": {"assay": "TC50 MTS assay with human cancer cell lines: HEPG2", "assay_type": "cell-based", "conditions": "HEPG2 cells, 96 h drug treatment", "procedure": "as §1, §2\n(§4) MTS Assay: The reagents from CellTiter 96 kit (Promega Corporation, Madison, Wis.) were thawed at room temperature in the dark for 1 h. The 96-well plate was removed from the 37° C. incubator at 48 h after drug treatment. 20 μL of the combined MTS/PMS reagent to each well of the plate, mixed, and the plate returned to 37° C. The absorbance of each well at 490 nm and 650 nm was determined using the Flexstation 3 microplate reader in endpoint mode every hour for 3 h. The solutions in the wells were mixed prior to each reading. Fit Data to the Emax model: y=(Emax*x)/(TC50+x), where Emax is the maximum inhibition and TC50 is the inhibitory dose 50%. Alternatively, fit the data to the Emax sigmoidal model: y=(Emax*x^slope)/(TC50^slope+x^slope), where slope is the Hill Slope.\n(§5) Each TC50 was the average value of three measurements as described herein. […] The RPK9 cells are deficient in deoxycytidine kinase (“dCK”) activity, an enzyme required for the initial phosphorylation of dFdC to dFdCMP (see FIG. 2)."}, "HCV luciferase replicon [3]": {"system": "HCV luciferase replicon", "assay": "HCV luciferase replicon IC50 assay in Huh7 cells", "conditions": "Hepatitis C virus", "procedure": "Plating Cells: The Luciferase replicon cell line was passaged when it was at about 70% confluency. The cells were counted by using a hemocytometer and diluted to 1×10^5 cells per mL in DMEM+10% FBS+[…] G415. The cells were plated as follows: 100 μL of the cells (10,000 cells) per well in a white-walled 96-well plate. The cells were allowed to attach for 24 hours at 37° C.\n(§6) Treating the cells: Media (DMEM+2% FBS) was pre-warmed to 37° C. […] The 96-well plate was removed from the 37° C. incubator, and the media replaced on the plate with the serial dilutions of the test drug. The plate was then returned to 37° C. for 48 h.\nLuciferase Assay: The Bright-Glo reagent (Promega Corporation, Madison, Wis.) was removed from the −80° C. freezer and allowed to thaw it at 4° C. in the dark. The amount of reagent necessary for the experiment (3.65 mL) was removed, and the remaining reagent was returned to −80° C. The Glo Lysis Buffer and the Bright Glow reagent were allowed to warm to room temperature for 30 min in the dark. The 96 well plate was removed from the incubator and the cells to allowed cool to room temperature for 30 min. The media was removed from the cells, and each well was gently washed in 100 μL of phosphate buffered saline (PBS). The PBS was removed and then 50 μL of the Glo Lysis Buffer was added to each well, followed by gently rocking the plate for 15 min at room temperature in the dark to ensure complete cell lysis. To each well of the 96-well plate was added 50 μL of the Bright Glo reagent and it was mixed well with the lysate. The plate was inserted into a GloMax 96 plate reader and allowed to sit for 5 min in the dark for the luciferase reaction to reach a steady state. The luminescence on the plate was read by using the pre-installed “Bright Glo” Promega program (Synergy Software) and the data were collected and saved. The data were fit to a 4 parameter logistic curve using Kaleidagraph using the following equation: 100/(1+(x/m3)^m4).\nThe data in Table 1 were determined for cells exposed to drug for 48 h. The IC50 is the concentration of each compound necessary to inhibit the replication of the HCV luciferase replicon to 50%.\nThat is, the cells were exposed to drug for 2 h at 37° C., followed by 46 h at 37° C. or incubated in the presence of drug for 48 h at 37° C."}, "[4]": {"assay": "TC50 MTS assay with human cancer cell lines: MCF-7", "assay_type": "cell-based", "conditions": "MCF-7 cells, 96 h drug treatment", "procedure": "as §1, §2, §4, §5"}, "[5]": {"assay": "TC50 MTS assay with human cancer cell lines: Huh7", "assay_type": "cell-based", "conditions": "human, Huh7 cells; 96 h drug treatment", "procedure": "as §1, §2, §4, §5"}, "hENT1": {"system": "hENT1", "assay": "TC50 MTS assay with human cancer cell lines: Huh7", "assay_type": "cell-based", "conditions": "human, Huh7 cells; 48 h drug treatment; 10 μM S-(4-nitrobenzyl)-6-thioinosine (hENT1 inhibitor) added; read-out: TC50 (μM) in Huh7 cells NBTI", "procedure": "as §1, §2, §4, §5"}, "[6]": {"assay": "Compound solubility in media", "assay_type": "physicochemical", "conditions": "DMEM+2% FBS cell culture media, 37 °C, plasma or biological fluid, kinetic from dmso stock; DMEM+2% FBS media", "procedure": "as §6"}, "HCV luciferase replicon [7]": {"system": "HCV luciferase replicon", "assay": "Reversal of anti-HCV activity by exogenous nucleosides", "assay_type": "cell-based, hepatitis C virus (HCV)", "conditions": "drug 1000, 100 or 25 nM; 50 μM cytidine or 2′-deoxycitidine; 48 h", "procedure": "After 48 hours, the cells were lysed, and the total luciferase activity was determined. […] Where indicated, either 50 μM cytidine (C) or 50 μM 2′-deoxycitidine (dC) was also included.\nThe cells were plated, incubated with drug, and luciferase activity assayed essentially as described herein above. The incubation with drug was for 48 h."}, "HCV luciferase replicon [8]": {"system": "HCV luciferase replicon", "assay": "Isobologram analysis of synergism with other anti-viral compounds", "assay_type": "cell-based, hepatitis C virus (HCV)", "procedure": "Isobologram analysis was carried to assess the potential synergistic interaction of representative disclosed compounds with representative antiviral compounds. The isobolgram analysis was conducted as previously described by Chou and Talalay (see Chou T. C. and Talalay P. “Analysis of combined drug effects: a new look at a very old problem.” Trends Pharmacol Sci 1983; 4:450-4; and Chou T. C. and Talalay P. “Quantitative analysis of dose-effect relationships: the combined effects of multiple drugs or enzyme inhibitors.” Adv Enzyme Regul 1984; 22:27-55). The definitions of synergism are those described by Chou (see Chou, T. C. (2006) Theoretical basis, experimental design, and computerized simulation of synergism and antagonism in drug combination studies. Pharmacol Rev. 58(3):621-81).\nData for the isobologram analysis are shown in FIGS. 12-15, and shown in each figure are the test compound concentrations and corresponding combination index."}, "[9]": {"assay": "TC50 MTS assay with human cancer cell lines: HEK293", "assay_type": "cell-based", "conditions": "HEK293 cells, 96 h drug treatment", "procedure": "as §1, §2, §4, §5"}, "[10]": {"assay": "TC50 MTS assay with human cancer cell lines: BxPC3", "assay_type": "cell-based", "conditions": "BxPC3 cells, 96 h drug treatment", "procedure": "as §1, §2, §3"}, "[11]": {"assay": "TC50 MTS assay: RPK9 cells (deficient in deoxycytidine kinase)", "assay_type": "cell-based", "conditions": "human, 48 h drug treatment, dCK-deficient cells", "procedure": "as §1, §2, §3"}},
  "data": [
    {"smiles": "Nc1ccn([C@@H]2O[C@H](CO)[C@@H](O)C2(F)F)c(=O)n1", "note": "[gemcitabine, 4-amino-1-((2R,4R,5R)-3,3-difluoro-4-hydroxy-5-(hydroxymethyl)tetrahydrofuran-2-yl)pyrimidin-2(1H)-one, reference compound]", "values": [
      {"measurement": "CC50 at 48 h", "setting": "[1]", "result": "0.095 ± 0.035", "unit": "µM"},
      {"measurement": "CC50 at 96 h", "setting": "[2]", "result": "311 ± 55", "unit": "nM"},
      {"measurement": "IC50", "setting": "HCV luciferase replicon [3]; Huh-7, 48 h, cells incubated with drug continuously for 48 h (Table 5)", "result": "58.4 ± 6.1", "unit": "nM"},
      {"measurement": "IC50", "setting": "HCV luciferase replicon [3]; Huh-7, cells incubated with drug for 2 h, followed by 46 h without drug", "result": "170 ± 33", "unit": "nM"},
      {"measurement": "CC50 at 96 h", "setting": "[4]", "result": "67 ± 14", "unit": "nM"},
      {"measurement": "CC50 at 96 h", "setting": "[5]", "result": "3410 ± 1360", "unit": "nM"},
      {"measurement": "CC50 at 48 h", "setting": "hENT1", "result": "> 500", "unit": "µM"},
      {"measurement": "solubility", "setting": "[6]", "result": "> 500", "unit": "µM"},
      {"measurement": "reversal of the inhibition of the HCV luciferase replicon by deoxycytidine and cytidine", "setting": "HCV luciferase replicon [7]", "result": "reversal"},
      {"measurement": "Interaction Type with PSI-6130", "setting": "HCV luciferase replicon [8]; Compound 2 = PSI-6130", "result": "synergism"},
      {"measurement": "Interaction Type with PSI-7977", "setting": "HCV luciferase replicon [8]; Compound 2 = PSI-7977", "result": "slight synergism"},
      {"measurement": "CC50 at 96 h", "setting": "[9]", "result": "560 ± 130", "unit": "nM"},
      {"measurement": "CC50 at 96 h", "setting": "[10]", "result": "2.9 ± 0.3", "unit": "nM"},
      {"measurement": "CC50 at 48 h", "setting": "[11]", "result": "> 500", "unit": "µM"}
    ]}
  ]
}
